Laboratory results published in patent US10907159B2, “Methods of treating cancer by inhibition of DNA repair proteins using antisense based therapies” (SARISSA INC., priority 2015, dated 2021).
“Also recorded” adds a separate entry of the source. Read-outs that look alike come from different tables or passages of the source. d = 2'-deoxy (DNA); m = 2'-O-methyl

Experiments:
Format in all cases: cell-based, human
A549b cells [1] = assay: Proliferation of A549b cells after OLIGO/siRNA transfection (cell counting); conditions: for relative proliferation: FIG. 12
Protocol: Cultured cell lines were maintained in minimum essential medium a with nucleosides plus 10% fetal bovine serum and penicillin (50 units/mL)/streptomycin (50 mg/L) (growth medium). Cultures were incubated in a humidified atmosphere of 5% CO2 at 37° C. Cultured cell lines were maintained and cytotoxicity assays conducted as described previously (3). Rapidly proliferating cells were utilized for establishing cultures of experimental cells, which were allowed to plate overnight in 25-cm^2 flasks prior to manipulation. An established cell line of non-small-cell lung carcinoma (NSCLC), A549b, which was propagated by serial dilution from a single cell of an A549 parent cell line, was used for the establishment of antisense activity of oligonucleotides. This cell line proliferates with a mean generation time of approximately 20 hours, and is capable of forming tumours in immunodeficient mice with a take rate of greater than 90%. Therefore, this cell line is a good model system that can be used in both in vitro and in vivo experiments to test the activity of OLIGOs.
OLIGOs were introduced into cells with the use of Lipofectamine 2000 (LFA2K) (Invitrogen, Burlington, Ontario, Canada). OLIGOs were mixed with LFA2K at a ratio of 0.2 μg/ml per 10 nM OLIGO. The mixture was prepared at 11× the final concentration to which cells were exposed, so that 200 μL was added to 2 mL of medium in which cells were plated. As controls, cells were exposed to medium alone (no treatment), LFA2K alone at concentrations equivalent to those used in combination with OLIGOs (in some experiments only the maximum LFA2K concentration was used as a control), or OLIGO having no complementarity with any human mRNA. The OLIGO/LFA2K mixtures were then incubated at room temperature for 20 minutes, according to instructions supplied with the LFA2K, followed by addition of the OLIGOs to the cell medium. The OLIGO/LFA2K mix was then incubated (37° C.) on the cells for 4 hours, after which a second volume of medium was added. Cells were then incubated for 20 hours. Following this incubation, the OLIGO-containing medium was replaced with drug-free medium (i.e. medium without OLIGOs) and the cells were incubated for an additional 4 days. Following the 4-day incubation, the proliferation of the treated cells (fold-increase in cell number) was calculated as a percentage of that of control cells. Cell numbers were enumerated on an electronic particle counter (Beckman Coulter, Mississauga, ON). For the purpose of determining the anti-proliferative effect of antisense OLIGOs, the proliferation of cells treated with antisense OLIGOs was calculated as a percent of that of cells treated with an equivalent concentration of non-complementary control OLIGO (in this case OLIGO 32) mixed with an equivalent amount of LFA2K.
OLIGO-containing medium was removed and replaced with fresh medium. Cells were incubated for 4 days, at which time cell number was counted. Proliferation was calculated as a percent of non-targeting OLIGO-treated controls.
Cells were incubated for 4 days, at which time cell number was counted. Proliferation was calculated as a percent of controls.

BRCA2 mRNA = assay: RT-qPCR of BRCA2 mRNA in A549 cells after OLIGO transfection; conditions: 20 nM OLIGO, 24 hours post-transfection; FIG. 16
Protocol: (§1) Briefly, A549 cells seeded at a density of 2.0×10^5 per flask were transfected with 20 nM of OLIGO specific for each target or control OLIGO using Lipofectamine 2000 as the transfection reagent. Twenty four hours post-transfection mRNA was extracted and reverse transcribed into cDNA. RT-qPCR was performed for target mRNA levels using TaqMan reagents according to established protocols.

TS mRNA = assay: RT-qPCR of TS mRNA in A549 cells after OLIGO transfection; conditions: 20 nM OLIGO, 24 hours post-transfection; FIG. 16
Protocol: as §1

SKOV-3 cells = assay: Cell proliferation assay, ASO transfection and/or drug (cell counting); conditions: single olaparib treatment, 96 hours; FIG. 27C
Protocol: FIG. 24 illustrates that BRCA2 inhibition sensitizes ovarian cancer and breast cancer cell lines to olaparib treatment. SKOV-3 (A) and CaOV3 (B) cells were transfected with control ASO (•) or BRCA2 ASO (∘) and then treated with three different concentrations of olaparib. Proliferation was determined by cell counting 96 hours post-transfection (*p<0.05). C: BRCA2 mRNA levels were measured by qPCR 24 hours following BRCA2 ASO transfection in SKOV-3, CaOV3, 211 H and H2052 cell lines.
E: SKOV-3 cells were transfected with control or BRCA2 ASO and then treated with olaparib 24 hours post transfection. Ninety-six hours post transfection, cells were counted, plated, and re-transfected with control ASO or BRCA2 ASO and re-treated with olaparib. Cell counts were performed 96 hours post transfection (*p<0.05). […]
A: BRCA2-wild type SKOV-3 cells (black bars), […] MCF-7 cells (white bars), and BRCA2-mutated CAPAN-1 cells (grey bars) were treated simultaneously but separately with BRCA2 ASO (20 nM). […] Ninety-six hours post-transfection, cells were counted and proliferation determined (% of proliferation after control ASO treatment).
C: SKOV-3, MCF-7 and CAPAN-1 cells were treated with two different concentrations of olaparib for 96 hours. After drug treatment they were counted and proliferation was determined as a percent of that of vehicle-treated cells. […]

[2] = system: mixed cell population SKOV-3^shBRCA2:SKOV-3^shControl 3:1; assay: Co-culture model of BRCA2 heterogeneity, proliferation; conditions: 2.5 μM, FIG. 29A
Protocol: (§2) A: SKOV-3^shBRCA2 cells (low BRCA2) were mixed with SKOV-3^shControl cells (high BRCA2) at a 3:1 ratio, resulting in a primarily HRR-deficient mixed cell population. Parental and mixed populations were treated for the first time with olaparib (1° olaparib, 2.5 μM) or vehicle. Cells were re-plated at equal density 96 hours post-treatment. Parental and mixed populations were then treated a second time with olaparib (2° olaparib, 2.5 μM) or control vehicle. Ninety-six hours post-treatment, proliferation for all groups was determined based on cell counts and seeding density following 1° olaparib or vehicle treatment. White bars: 2° olaparib. Black bars: no 2° olaparib.
B: SKOV-3^shBRCA2 cells (low BRCA2), SKOV-3^shControl cells (high BRCA2), and a mixed cell population (3:1, low BRCA2:high BRCA2) were transfected with control ASO or BRCA2 ASO followed by treatment with vehicle or olaparib (2.5 μM). Proliferation (percent of control ASO-treated cells) was determined 96 hours post-transfection. […]
(§3) To mimic a heterogeneous tumor cell population that is predominantly HRR-deficient, we co-cultured SKOV-3^shBRCA2 (low BRCA2) and SKOV-3^shcontrol (high BRCA2) in a 3:1 ratio. The mixed cell population, along with unmixed SKOV-3^shBRCA2 and SKOV-3^shcontrol populations, was treated with olaparib (1° Olaparib), then counted, re-seeded and treated with olaparib a second time (2° Olaparib) (FIG. 32).

MCF-7 cells = assay: Cell proliferation assay, ASO and/or olaparib (cell counting); conditions: single olaparib treatment, 96 hours, vs vehicle; FIG. 27C
Protocol: (§4) A: BRCA2-wild type SKOV-3 cells (black bars), […] MCF-7 cells (white bars), and BRCA2-mutated CAPAN-1 cells (grey bars) were treated simultaneously but separately with BRCA2 ASO (20 nM). Due to differing growth medium requirements and to avoid fluorescent label-induced changes in drug sensitivity, cells were not co-cultured. They were treated independently, at the same time with the same materials. Ninety-six hours post-transfection, cells were counted and proliferation determined (% of proliferation after control ASO treatment).
(§5) C: SKOV-3, MCF-7 and CAPAN-1 cells were treated with two different concentrations of olaparib for 96 hours. After drug treatment they were counted and proliferation was determined as a percent of that of vehicle-treated cells.
FIG. 28 illustrates combined BRCA2 ASO and olaparib treatment decreases the proliferation of both HRR-deficient and HRR-proficient cells. […] Proliferation was determined using cell counting 96 hours post-transfection.
Four hours post-transfection, cells were seeded into 6 well dishes in appropriate experimental groups. […] Ninety-six hours post transfection, cells were collected and counted (Coulter Particle Counter). Proliferation was determined based on initial cell density and calculated as a percentage of ASO+vehicle treated cells.

A549b cells [3] = assay: cells; conditions: Homo sapiens, curves extrapolated, unit inferred, read-out: concentration of olaparib required to inhibit proliferation of A549b cells by 50% (IC50)
Protocol: OLIGOs were introduced into cells with the use of Lipofectamine 2000 (LFA2K) (Invitrogen, Burlington, Ontario, Canada). OLIGOs were mixed with LFA2K at a ratio of 0.2 μg/ml per 10 nM OLIGO. The mixture was prepared at 11× the final concentration to which cells were exposed, so that 200 μL was added to 2 mL of medium in which cells were plated. After incubating at room temperature for 20 minutes, according to manufacturer's instructions, the OLIGOs were added to the cell medium. The OLIGO/LFA2K mix was then incubated (37° C.) on the cells for 4 hours, after which a second volume of medium was added. Cells were then incubated for 20 hours. Following this incubation, the OLIGO-containing medium was replaced with OLIGO-free medium.
For cells treated with the drug olaparib, for the purposes of determining whether inhibitory activity was enhanced by the OLIGO pretreatment, olaparib was added at this time, in concentrations of from 0.01 μM to 3 μM. At this point, replicate flasks from the OLIGO-treatment were used to enumerate cell content, as this varied among treatments over the initial 24-hour exposure. This was done so that the effect of treatment with olaparib could be ascertained based on the cell population that was present at the time of initiation of exposure to olaparib. Exposure to the olaparib was initiated by addition of 0.2-volume of a preparation of the drug, at 6× final concentration in growth medium, to the fresh drug-free medium on the cells (1 ml of drug into 5 ml of medium). Following a further 4-day incubation, the proliferation of the treated cells (fold-increase in cell number) was calculated as a percentage of that of control cells. Cell numbers were enumerated on an electronic particle counter (Beckman Coulter, Mississauga, ON). As indicated in Example 1, for the purpose of determining the anti-proliferative effect of antisense OLIGOs alone, the proliferation of cells treated with antisense OLIGOs was calculated as a percent of that of cells treated with an equivalent concentration of non-complementary control OLIGO (in this case OLIGO 32). However, for the purpose of determining the anti-proliferative effect of olaparib against antisense or non-complementary (control) OLIGO-treated cells, the proliferation was calculated as a percent of cells treated with the respective OLIGO.
These experiments were carried out essentially as described in Example 3, with the following changes. The drug tested was cisplatin instead of olaparib, and cisplatin was tested in concentrations ranging from 0.5 μM to 2 μM.
These experiments were carried out essentially as described in Example 3, with the following changes. The drug tested was melphalan in concentrations ranging from 2 μM to 10 μM.
These experiments were carried out essentially as described in Example 3, with the following changes. The drug tested was carboplatin at concentrations ranging from 5 μM to 40 μM.
These experiments were carried out essentially as described in Example 3, with the following changes. The drug tested was oxaliplatin was tested in concentrations ranging from 0.2 μM to 2.5 μM.
Cisplatin was added to the final concentration indicated, and as described in Example 3. Cells were incubated for 4 days, at which time cell number was counted. Proliferation was calculated as a percent of siRNA-treated, non-cisplatin-treated controls.

[4] = system: SKOV-3^shBRCA2 cells (low BRCA2); assay: Co-culture model, unmixed population, proliferation; conditions: olaparib 2.5 μM; FIG. 29A
Protocol: as §2, §3

CAPAN-1 cells = assay: Cell proliferation assay, ASO and/or drug (cell counting); conditions: single olaparib treatment, 96 hours, vs vehicle; FIG. 27C
Protocol: as §4, §5
Four hours post-transfection, cells were seeded into 6 well dishes in appropriate experimental groups. Twenty-four hours post transfection, cells were treated with olaparib (Selleckchem) at three concentrations. Ninety-six hours post transfection, cells were collected and counted (Coulter Particle Counter). Proliferation was determined based on initial cell density and calculated as a percentage of ASO+vehicle treated cells.

5′-ugcccgATACACAAacgcug -3′ (UGCCCGATACACAAACGCUG; gapmer, lower-case wings modified, type not given here) [BR3]
relative proliferation (A549b cells [1]; 10 nM of BR3, vs equivalent concentration of OLIGO 491S): approximately 85% | anti-proliferative effect as single agent (A549b cells [1]; A549/A549b cells, 4 h transfection, counted after 4 d, vs non-targeting control OLIGO): inhibit proliferation of human non-small cell lung cancer A549 cells in a concentration-dependent manner; also recorded: antiproliferative on its own

5′-gccaguGGCAACATccuuaa-3′ (antisense GCCAGUGGCAACATCCUUAA; sugars from the 5' end m6 d8 m6, all phosphorothioate, methylation of C not given here) [OLIGO 83]
relative proliferation (A549b cells [1]; 20 nM OLIGO 83, vs OLIGO 491S): approximately 20% | effect on BRCA2 mRNA level (BRCA2 mRNA): no significant effect on BRCA2 mRNA | effect on TS mRNA level (TS mRNA): reduction in TS mRNA

O=C(c1cc(Cc2n[nH]c(=O)c3ccccc23)ccc1F)N1CCN(C(=O)C2CC2)CC1 [olaparib, reference compound]
effect of olaparib on proliferation (SKOV-3 cells): no effect on SKOV-3 proliferation | response to initial olaparib treatment ([2]; 1° olaparib): sensitive to initial treatment with olaparib | response to second olaparib treatment ([2]; 2° olaparib): completely unresponsive to a second treatment | decreased the proliferation (MCF-7 cells): 39%±6.8% | IC50 (A549b cells [3]; in the absence of BR1 (control OLIGO 32)): ~5 µM | IC50 (A549b cells [3]; in the presence of BR1 pretreatment): ~0.05 µM | response to olaparib after two treatments [4]: remained sensitive to olaparib even after two treatments | decreased the proliferation (CAPAN-1 cells): 94%±4.6%

5′-UUAUCCAGGACAUCACUGC-3′ [RADb]
inhibited proliferation of A549b cells (A549b cells [1]; siRNA at 2 nM, FIG. 21): over 50%
